Reference: US10975083B2, “Blood-brain barrier-penetrant dopamine-β-hydroxylase inhibitors” (BIAL—PORTELA & Cᵃ, S.A., priority 2016, dated 2021)
Where two headings read alike, the source gives them in different places.

Biological target: T1, DβH (Homo sapiens, UniProt P09172)
T1 construct: reaction mixture (total volume 500 μl) contained: cellular homogenate (75 μg total protein); host or cells: SK-N-SH cell homogenate
T1 sequence (P09172 1-617): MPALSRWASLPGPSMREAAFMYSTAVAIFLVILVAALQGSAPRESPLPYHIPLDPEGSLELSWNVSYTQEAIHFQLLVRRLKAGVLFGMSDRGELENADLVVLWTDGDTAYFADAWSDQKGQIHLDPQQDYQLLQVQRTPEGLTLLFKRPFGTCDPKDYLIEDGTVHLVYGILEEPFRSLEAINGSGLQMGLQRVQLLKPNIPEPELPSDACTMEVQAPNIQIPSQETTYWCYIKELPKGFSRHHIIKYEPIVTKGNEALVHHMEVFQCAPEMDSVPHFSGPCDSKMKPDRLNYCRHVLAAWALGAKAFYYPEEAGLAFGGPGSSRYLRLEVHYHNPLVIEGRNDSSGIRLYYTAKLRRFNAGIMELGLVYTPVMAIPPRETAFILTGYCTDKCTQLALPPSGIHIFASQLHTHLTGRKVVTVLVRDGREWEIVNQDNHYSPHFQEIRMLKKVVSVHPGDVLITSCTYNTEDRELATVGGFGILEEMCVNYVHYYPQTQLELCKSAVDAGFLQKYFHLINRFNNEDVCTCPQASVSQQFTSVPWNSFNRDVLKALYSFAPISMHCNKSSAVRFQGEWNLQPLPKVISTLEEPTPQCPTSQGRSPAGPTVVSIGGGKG
Assay: DβH inhibition cell assay (SK-N-SH cellular homogenates, tyramine to octopamine)
Type: biochemical
Settings: for remaining activity at 0.1 µM: inhibitor 0.1 μM, read-out: DβH activity in % of Ctrl (0.1 μM); for remaining activity at 1 µM: read-out: DβH activity in % of Ctrl (1 μM); for remaining activity at 10 µM: inhibitor 10 μM, read-out: DβH activity in % of Ctrl (10 μM)
Experimental: The ability of a compound to inhibit DβH activity may be assessed using the following cell assay. […] . […] Fetal bovine serum was removed from cells for 4 h prior to collection.
For the preparation of cellular homogenates, media was removed and cell monolayers were washed with 50 mM Tris-HCl pH 7.4. Cells were subsequently scrapped off the flasks and were resuspended in 50 mM Tris pH 7.4. Cell suspensions were homogenized with SilentCrusher M (Heidolph) for a short stroke and resultant homogenates were aliquoted and stored frozen at −80° C.
Total protein was quantified in cellular homogenates with BioRad Protein Assay (BioRad) using a standard curve of BSA (50-250 μg/mL).
DβH activity was measured by a modification of the method of Nagatsu and Udenfriend (Nagatsu, T. and S. Udenfriend: “Photometric assay of dopamine-hydroxylase activity in human blood.” Clin. Chem. 18(9): 980-3, 1972) which is based on the enzymatic hydroxylation of tyramine into octopamine. The octopamine formed is subsequently oxidized to p-hydroxybenzaldehyde and measured by spectrophotometry. In brief, reaction mixture (total volume 500 μl) contained: cellular homogenate (75 μg total protein) sodium acetate pH 5.0 (200 mM), NEM (30 mM), CuSO4 (5 μM), catalase aqueous solution (0.5 mg/mL), pargyline-HCl (1 mM), sodium fumarate (10 mM), ascorbic acid (10 mM), inhibitor or vehicle and tyramine (25 mM). After a 10 min pre-incubation period at 37° C., the reaction was initiated by the addition of tyramine. Reaction was carried out for 45 min at 37° C. before termination with 50 μl PCA (2 M).
Samples were centrifuged for 3 min at 16100 g and supernatants were subjected to solid phase extraction. Solid phase extraction was performed using either SPE cartridges ISOLUTE SCX-3 (100 mg, 1 mL) or SPE 2 mL fixed 96 well plates ISOLUTE SCX-3 (100 mg) previously equilibrated with MilliQ water. Columns/plates were centrifuged at 150 g for 2 min. Eluate was discarded and matrix was washed with 1 mL of MilliQ water after which octopamine was eluted with 2×0.25 mL ammonium hydroxide (4 M). The oxidation of octopamine to p-hydroxybenzaldehyde was carried out for 6 min with 100 μl sodium periodate (2%) and was stopped with 100 μl sodium metabisulfite (10%). Absorbance was measured at 330 nm on a Spectramax microplate reader (Molecular Devices, Sunnyvale, Calif.). All enzymatic reactions were performed in duplicate. Results are reported in the table below as activity in % of control at the inhibitor concentration tested.

[1] = inhibitor 1 μM, SK-N-SH cell homogenate

SMILES	remaining activity at 0.1 µM (SK-N-SH cell homogenate)	remaining activity at 1 µM [1]	remaining activity at 10 µM (SK-N-SH cell homogenate)	remaining activity at 1 µM
Cn1cc2n(c1=S)C[C@@H](c1c(F)c(F)cc(F)c1F)C2 [Example 114, (R)-2-methyl-6-(2,3,5,6-tetrafluorophenyl)-2,5,6,7-tetrahydro-3H-pyrrolo[1,2-c]imidazole-3-thione]	70.8%	15.2%		
Fc1cccc(F)c1[C@H]1Cc2c[nH]c(=S)n2C1 [Example 87, (R)-6-(2,6-difluorophenyl)-2,5,6,7-tetrahydro-3H-pyrrolo[1,2-c]imidazole-3-thione]	36.5%	0%		
Fc1ccc(Br)c(F)c1[C@H]1Cc2c[nH]c(=S)n2C1 [Example 118, (R)-6-(3-bromo-2,6-difluorophenyl)-2,5,6,7-tetrahydro-3H-pyrrolo[1,2-c]imidazole-3-thione]	33.8%	0%		
Cc1cccc(C2CCN(C(N)=S)C2)c1 (stereo not shown) [Example 14, 3-m-tolylpyrrolidine-1-carbothioamide]			13.1%	
Fc1ccc(F)c([C@@H]2Cc3c[nH]c(=S)n3C2)c1F [Example 112, (S)-6-(2,3,6-trifluorophenyl)-2,5,6,7-tetrahydro-3H-pyrrolo[1,2-c]imidazole-3-thione]	70%	10.1%		
Cc1[nH]c(=S)n2c1C[C@H](c1c(F)c(F)cc(F)c1F)C2 [Example 96, (R)-1-methyl-6-(2,3,5,6-tetrafluorophenyl)-2,5,6,7-tetrahydro-3H-pyrrolo[1,2-c]imidazole-3-thione]	32%	15%		
Fc1c(Cl)cccc1[C@]12C[C@H]1c1c[nH]c(=S)n1C2 [Example 92, (5aS,6aR)-5a-(3-chloro-2-fluorophenyl)-5,5a,6,6a-tetrahydrocyclopropa[3,4]pyrrolo[1,2-c]imidazole-3 (2H)-thione]	2%	0%		
Cc1[nH]c(=S)n2c1[C@@H]1C[C@]1(c1cc(F)cc(F)c1)C2 [Example 79, (5aS,6aR)-5a-(3,5-difluorophenyl)-1-methyl-5,5a,6,6a-tetrahydrocyclopropa[3,4]pyrrolo[1,2-c]imidazole-3 (2H)-thione]		13%		
N#CCNC(=S)N1CC2CC2(c2cc(F)ccc2F)C1 (stereo not shown) [Example 47, N-(cyanomethyl)-1-(2,5-difluorophenyl)-3-azabicyclo[3.1.0]hexane-3-carbothioamide]		45.3%		
Fc1ccc(Br)cc1[C@]12C[C@H]1c1c[nH]c(=S)n1C2 [Example 93, (5aS,6aR)-5a-(5-bromo-2-fluorophenyl)-5,5a,6,6a-tetrahydrocyclopropa[3,4]pyrrolo[1,2-c]imidazole-3 (2H)-thione]	0%	0%		
NC(=S)N1CCC(c2c(F)c(F)c(F)c(F)c2F)C1 (stereo not shown) [Example 29, 3-(perfluorophenyl)pyrrolidine-1-carbothioamide]	26.9%			
Cc1ccccc1C1CCN(C(N)=S)C1 (stereo not shown) [Example 13, 3-o-tolylpyrrolidine-1-carbothioamide]			7.2%	
NNC(=S)N1CC2CC2(c2cc(F)cc(F)c2)C1 (stereo not shown) [Example 45, 1-(3,5-Difluorophenyl)-3-azabicyclo[3.1.0]hexane-3-carbothiohydrazide]		29.1%		
C[C@H]1c2c[nH]c(=S)n2C[C@H]1c1c(F)c(F)cc(F)c1F [Example 108, (6R,7R)-7-methyl-6-(2,3,5,6-tetrafluorophenyl)-2,5,6,7-tetrahydro-3H-pyrrolo[1,2-c]imidazole-3-thione]		38.8%		
[2H]C1([2H])n2c(c[nH]c2=S)[C@@H]2C[C@@]21c1cc(Cl)ccc1F [Example 91, (5aS,6aR)-5a-(5-chloro-2-fluorophenyl)-5,5a,6,6a-tetrahydrocyclopropa[3,4]pyrrolo[1,2-c]imidazole-3(2H)-thione-5,5-d2]	22%	0%		
NC(=S)N1CCC(c2cc(F)c(F)cc2F)C1 (stereo not shown) [Example 19, 3-(2,4,5-trifluorophenyl)pyrrolidine-1-carbothioamide]		33.4%		
NC(=S)N1CC[C@@H](c2c(F)cc(F)cc2F)C1 [Example 21, (S)-3-(2,4,6-trifluorophenyl)pyrrolidine-1-carbothioamide]		17.5%		
Fc1cc(F)c(F)c([C@]23C[C@H]2c2c[nH]c(=S)n2C3)c1 [Example 63, (5aS,6aR)-5a-(2,3,5-trifluorophenyl)-5,5a,6,6a-tetrahydrocyclopropa[3,4]pyrrolo[1,2-c]imidazole-3 (2H)-thione]		13.9%		
NC(=S)N1CCCC(c2ccccc2)C1 (stereo not shown) [Example 4, 3-phenylpiperidine-1-carbothioamide]			18.6%	
Fc1cc(F)cc([C@]23C[C@H]2Cc2c[nH]c(=S)n2C3)c1 [Example 106, (5aS,6aS)-5a-(3,5-difluorophenyl)-2,5,5a,6,6a,7-hexahydro-3H-cyclopropa[d]imidazo[1,5-a]pyridine-3-thione]				16.3%
Fc1ccc([C@]23C[C@H]2c2c[nH]c(=S)n2C3)cc1F [Example 71, (5aS,6aR)-5a-(3,4-difluorophenyl)-5,5a,6,6a-tetrahydrocyclopropa[3,4]pyrrolo[1,2-c]imidazole-3(2H)-thione]		48.5%		
Fc1ccc(Br)c(F)c1[C@]12C[C@H]1c1n[nH]c(=S)n1C2 [Example 119, (5aS,6aR)-5a-(3-bromo-2,6-difluorophenyl)-5,5a,6,6a-tetrahydrocyclopropa[3,4]pyrrolo[2,1-c][1,2,4]triazole-3(2H)-thione]	49.1%	4.5%		
Fc1ccc(Br)c(F)c1[C@@H]1Cc2c[nH]c(=S)n2C1 [Example 117, (S)-6-(3-bromo-2,6-difluorophenyl)-2,5,6,7-tetrahydro-3H-pyrrolo[1,2-c]imidazole-3-thione]	6.4%	0%		
S=C1NCC2CC(c3ccccc3)CN12 (stereo not shown) [Example 44, 6-Phenyltetrahydro-1H-pyrrolo[1,2-c]imidazole-3(2H)-thione]		70.9%	13.7%	
Fc1ccc(Cl)c([C@]23C[C@H]2c2c[nH]c(=S)n2C3)c1 [Example 75, (5aS,6aR)-5a-(2-chloro-5-fluorophenyl)-5,5a,6,6a-tetrahydrocyclopropa[3,4]pyrrolo[1,2-c]imidazole-3 (2H)-thione]		18.1%		
CCCNC(=S)N1C[C@@H]2C[C@]2(c2cc(F)cc(F)c2)C1 [Example 39, (1S,5R)-1-(3,5-Difluorophenyl)-N-propyl-3-azabicyclo[3.1.0]hexane-3-carbothioamide]	40.4%	0.3%		
Fc1ccc(Cl)c(F)c1[C@H]1Cc2c[nH]c(=S)n2C1 [Example 86, (R)-6-(3-chloro-2,6-difluorophenyl)-2,5,6,7-tetrahydro-3H-pyrrolo[1,2-c]imidazole-3-thione]	25.3%	0%		
